From patent publication US9469597B2, “(Hetero)aryl cyclopropylamine compounds as LSD1 inhibitors” (ORYZON GENOMICS, S.A., priority 2011, dated 2016)
Structures can show the parent of a compound that is named as a salt.

Legend:
[1] = molecular target: Human recombinant monoamine oxidase MAO-A (Homo sapiens (Human), UniProt P21397); test: Monoamine oxidase assay (kynuramine to 4-hydroxyquinoline fluorescence), MAO-A; assay type: biochemical; settings: for Ki: Table 1, term Ki value used as designation for the IC50 value; for IC50: Table 2
From the text: (§1) Human recombinant monoamine oxidase proteins MAO-A and MAO-B were purchased from Sigma Aldrich. MAOs catalyze the oxidative deamination of primary, secondary and tertiary amines. In order to monitor MAO enzymatic activities and/or their inhibition rate by inhibitor(s) of interest, a fluorescence-based (inhibitor)-screening assay was set up. 3-(2-Aminophenyl)-3-oxopropanamine (kynuramine dihydrobromide, Sigma Aldrich), a non fluorescent compound was chosen as a substrate. Kynuramine is a non-specific substrate for both MAO-A and MAO-B activities. While undergoing oxidative deamination by MAO activities, kynuramine is converted into 4-hydroxyquinoline (4-HQ), a resulting fluorescent product.
(§2) The monoamine oxidase activity was estimated by measuring the conversion of kynuramine into 4-hydroxyquinoline. Assays were conducted in 96-well black plates with clear bottom (Corning) in a final volume of 100 μL. The assay buffer was 100 mM HEPES, pH 7.5. Each experiment was performed in duplicate within the same experiment.
Clorgyline and Deprenyl (Sigma Aldrich) was used as a control for specific inhibition of MAO-A and MAO-B respectively.
After leaving the enzyme(s) interacting with the inhibitor, KM of kynuramine was added to each reaction for MAO-B and MAO-A assay respectively, and the reaction was left for 1 hour at 37° C. in the dark. The oxidative deamination of the substrate was stopped by adding 50 μL of NaOH 2N.
(§3) The IC50 values of each inhibitor were calculated with GraphPad Prism Software.

[2] = molecular target: Human recombinant monoamine oxidase MAO-B (Homo sapiens (Human), UniProt P27338); test: Monoamine oxidase assay (kynuramine to 4-hydroxyquinoline fluorescence), MAO-B; assay type: biochemical; settings: Table 2
From the text: as §1, §2
Clorgyline and Deprenyl (Sigma Aldrich) was used as a control for specific inhibition of MAO-A and MAO-B respectively. […]
as §3

[3] = test system: THP-1 cells; test: Induction of differentiation of THP-1 leukemia cells (CD11b membrane expression, flow cytometry); assay type: cell-based, human; settings: at 100 nM, 96 h treatment
Procedure: By analyzing the induction of CD11b membrane expression on THP-1 cells we are assessing the ability of LSD1 inhibitors to induce terminal monocytic differentiation of a MLL-AF9 AML cell line. […] They carry t(9;11)(p21;q23) leading to MLL-MLLT3 (MLL-AF9) fusion gene. This cell line can undergo monocytic differentiation upon treatment with the appropriate stimulus. […] In this assay, 150,000 THP-1 cells were seeded in 1 ml of complete culture medium in 6-well tissue culture plates. […] Cells were kept in the presence of test compound for 96 h at a 5% CO2 atmosphere at 37° C. After this treatment period, cells were harvested, washed twice with PBS buffer and placed in a V-bottom 96-well plate. Each treated sample was split in two. […] Percentage of CD11b positive cells, as an indicator of monocytic differentiation, was determined compared to isotype control antibody stained cells. EC50 values were calculated by non-linear regression analysis.

Chain of Human recombinant monoamine oxidase MAO-A (P21397 whole entry): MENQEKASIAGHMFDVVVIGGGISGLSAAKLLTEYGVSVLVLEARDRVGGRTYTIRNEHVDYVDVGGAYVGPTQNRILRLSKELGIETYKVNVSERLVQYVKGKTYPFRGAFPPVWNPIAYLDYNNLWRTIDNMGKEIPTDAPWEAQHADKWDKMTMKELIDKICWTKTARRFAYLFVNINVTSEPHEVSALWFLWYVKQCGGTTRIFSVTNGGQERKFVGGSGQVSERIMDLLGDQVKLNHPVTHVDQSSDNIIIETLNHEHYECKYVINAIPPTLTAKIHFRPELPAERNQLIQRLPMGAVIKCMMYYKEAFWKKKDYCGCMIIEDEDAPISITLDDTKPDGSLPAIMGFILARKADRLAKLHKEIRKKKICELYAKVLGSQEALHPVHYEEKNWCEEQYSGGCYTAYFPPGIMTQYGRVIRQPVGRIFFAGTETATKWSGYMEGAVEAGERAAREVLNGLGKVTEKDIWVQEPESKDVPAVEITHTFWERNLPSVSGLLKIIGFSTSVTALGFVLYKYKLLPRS

| Compound | Ki [1] | IC50 [1] | IC50 [2] | CD11b+ cells [3] |
| --- | --- | --- | --- | --- |
| NC1CCC(N[C@H]2C[C@@H]2c2ccccc2)CC1 (mixture of isomers) [Example 1, N1-((trans)-2-phenylcyclopropyl)cyclohexane-1,4-diamine dihydrochloride] | > 40 µM | > 100 µM |  |  |
| NC1CCC(N[C@@H]2C[C@@H]2c2ccccc2)CC1 (relative stereo) [Example 21, N1-((cis)-2-phenylcyclopropyl)cyclohexane-1,4-diamine] |  | 5.23 µM |  |  |
| N[C@H]1CC[C@@H](N[C@H]2C[C@@H]2c2ccccc2)CC1 [Example 2, (cis)-N1-((1S,2R)-2-phenylcyclopropyl)cyclohexane-1,4-diamine hydrochloride] | > 40 µM | > 100 µM |  |  |
| Cl.N[C@H]1CC[C@H](N[C@H]2C[C@@H]2c2ccccc2)CC1 [Example 3, (trans)-N1-((1S,2R)-2-phenylcyclopropyl)cyclohexane-1,4-diamine hydrochloride] | > 40 µM | > 100 µM |  | 13% CD11b+ cells at 100 nM |
| N[C@H]1CC[C@@H](N[C@@H]2C[C@H]2c2ccccc2)CC1 [Example 4, (cis)-N1-((1R,2S)-2-phenylcyclopropyl)cyclohexane-1,4-diamine hydrochloride] | > 40 µM | > 100 µM |  |  |
| N[C@H]1CC[C@H](N[C@@H]2C[C@H]2c2ccccc2)CC1 [Example 5, (trans)-N1-((1R,2S)-2-phenylcyclopropyl)cyclohexane-1,4-diamine hydrochloride] |  | > 100 µM |  |  |
